How the values were obtained:
HeLa [1] = assay: Hoechst 33342 nuclear staining (Table 3); assay type: cell-based, human; parameters: key: 0 relating to no activity; 1 relating to weak activity comprising less than 50% of the cells; score 2 relating to strong activity comprising more than 50% of the cells
How it was run: (§1)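 Adherent cells (3-5×10^3, pre-spread 24 h) or suspension cells (8-10×10^3) treated with compounds at 10, 3, 1 and 0.3 µM for 24 or 48 h, then Hoechst 33342 stained for 30 min. Apoptotic nuclear morphology scored by fluorescence microscopy: 0 none, 1 weak (<50% cells), 2 strong (>50% cells).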

Jurkat [2] = assay: Hoechst 33342 nuclear staining (Table 3); assay type: cell-based, human; parameters: key: 0 relating to no activity; 1 relating to weak activity comprising less than 50% of the cells; score 2 relating to strong activity comprising more than 50% of the cells
How it was run: as §1

K562 [3] = assay: Hoechst 33342 nuclear staining (Table 3); assay type: cell-based, human; parameters: key: 0 relating to no activity; 1 relating to weak activity comprising less than 50% of the cells; score 2 relating to strong activity comprising more than 50% of the cells
How it was run: as §1

KB = assay: Hoechst 33342 nuclear staining (Table 3); assay type: cell-based, human; parameters: key: 0 relating to no activity; 1 relating to weak activity comprising less than 50% of the cells; score 2 relating to strong activity comprising more than 50% of the cells
How it was run: as §1

A20 [4] = assay: MTS proliferation assay; assay type: cell-based; details: Mus musculus, A20, 72 h incubation
Protocol: (§2) The assay is performed in 96 well tissue culture plates. The cells (range : 1.5*10^3-10^4) are seeded out in 80 µl complete medium 24 h prior to compound treatment. The test compounds are added in 20 µl complete medium containing max 5% DMSO. The final compound concentrations in the assays are 10 µM, 3 µM,1 µM and 0.3 µM, respectively. The assay plates are incubated for 72 h at culture conditions. The MTS reagent is prepared according to the manufacturer's protocol (Promega G1111 ). 20 µl MTS reagent are added to each well, the assay plates are quickly spun and incubated for another 3 h at culture conditions. Subsequently, the plates are shortly shaked and absorption measured with a microplate-reader at 492 nm.

HeLa [5] = assay: MTS proliferation assay; assay type: cell-based; details: Homo sapiens, 72 h incubation
Protocol: as §2

K562 [6] = assay: MTS proliferation assay; assay type: cell-based; details: Homo sapiens, K562, 72 h incubation
Protocol: as §2

HeLa [7] = assay: AnnexinV/7-AAD staining; assay type: cell-based, human; details: 10 µM, 24 h treatment
How it was run: (§3)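 Cells treated with compound at 10 µM final for 24 h, then stained with AnnexinV-GST/anti-GST Alexa 488 and 7-AAD and analysed by flow cytometry. Percent positive cells scored as 0 (<10%), 1 (10–50%) or 2 (>50%).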

Jurkat [8] = assay: AnnexinV/7-AAD staining; assay type: cell-based, human; details: 10 µM, 24 h treatment
How it was run: as §3

Ramos = assay: AnnexinV/7-AAD staining; assay type: cell-based, human; details: 10 µM, 24 h treatment
How it was run: as §3

A20 [9] = assay: AnnexinV/7-AAD staining; assay type: cell-based, mouse; details: A20, 10 µM, 24 h treatment
How it was run: as §3

HeLa [10] = assay: PI staining for cell cycle distribution; assay type: cell-based, human; parameters: key: 0 indicates no occurrence at all; 1 for weak; 2 for strong occurrence; details: HeLa 10 µM, 24 h
Protocol: (§4) 1 - 2*10^5 cells are seeded into 24 well tissue culture plates and incubated for 24 h prior to compound addition. Compounds are added for 24 h in a final concentration of 3 µM or 10 µM. Adherent cells are harvested by trypsinization. The cell suspensions are fixed by adding 2 parts ice cold ethanol 100% while vortexing. Then the samples are stored for > 2 h at-20°C. Subsequently the cells are washed with PBS once and resuspended in 250 µl PBS containing 50 µg/ml PI (Calbiochem # 537059), then the samples are incubated at 37°C for 30 minutes and subsequently analyzed on a FACSCalibur™ monitoring linear PI fluorescence activity on FL2.. The readout allows the detection of a possible direct or indirect influence of the tested compounds on the cell cycle. The following events can occur: a) Generation of a subG1 peak indicative for DNA fragmentation, b) increase of the cell population arrested in G2M phase. Both events are scored by 1 for weak and 2 for strong occurrence. 0 indicates no occurrence at all. […]

Jurkat [11] = assay: PI staining for cell cycle distribution; assay type: cell-based, human; parameters: key: 0 indicates no occurrence at all; 1 for weak; 2 for strong occurrence; details: Jurkat 3 uM, 24 h
Protocol: as §4

COc1cc2c(cc1OC)-c1cc3nc4ccccc4nc3n1C(C)C2 (stereo not drawn) [compound 8]
Hoechst 33342 nuclear staining (HeLa [1]; 24h, conc 0.3 (µM)): 0 | Hoechst 33342 nuclear staining (HeLa [1]; 24h, conc 1 (µM)): 0 | Hoechst 33342 nuclear staining (HeLa [1]; 24h, conc 3 (µM)): 0 | Hoechst 33342 nuclear staining (HeLa [1]; 24h, conc 10 (µM)): 0 | Hoechst 33342 nuclear staining (HeLa [1]; 48h, conc 0.3 (µM)): 0 | Hoechst 33342 nuclear staining (HeLa [1]; 48h, conc 1 (µM)): 0 | Hoechst 33342 nuclear staining (HeLa [1]; 48h, conc 3 (µM)): 1 (1 relating to weak activity comprising less than 50% of the cells) | Hoechst 33342 nuclear staining (HeLa [1]; 48h, conc 10 (µM)): 2 (score 2 relating to strong activity comprising more than 50% of the cells) | Hoechst 33342 nuclear staining (Jurkat [2]; 24h, conc 0.3 (µM)): 1 (1 relating to weak activity comprising less than 50% of the cells) | Hoechst 33342 nuclear staining (Jurkat [2]; 24h, conc 1 (µM)): 1 (1 relating to weak activity comprising less than 50% of the cells) | Hoechst 33342 nuclear staining (Jurkat [2]; 24h, conc 3 (µM)): 2 (score 2 relating to strong activity comprising more than 50% of the cells) | Hoechst 33342 nuclear staining (Jurkat [2]; 24h, conc 10 (µM)): 2 (score 2 relating to strong activity comprising more than 50% of the cells) | Hoechst 33342 nuclear staining (Jurkat [2]; 48h, conc 0.3 (µM)): 1 (1 relating to weak activity comprising less than 50% of the cells) | Hoechst 33342 nuclear staining (Jurkat [2]; 48h, conc 1 (µM)): 2 (score 2 relating to strong activity comprising more than 50% of the cells) | Hoechst 33342 nuclear staining (Jurkat [2]; 48h, conc 3 (µM)): 2 (score 2 relating to strong activity comprising more than 50% of the cells) | Hoechst 33342 nuclear staining (Jurkat [2]; 48h, conc 10 (µM)): 2 (score 2 relating to strong activity comprising more than 50% of the cells) | Hoechst 33342 nuclear staining (K562 [3]; K562, 24h, conc 0.3 (µM)): 0 | Hoechst 33342 nuclear staining (K562 [3]; K562, 24h, conc 1 (µM)): 0 | Hoechst 33342 nuclear staining (K562 [3]; K562, 24h, conc 3 (µM)): 0 | Hoechst 33342 nuclear staining (K562 [3]; K562, 48h, conc 0.3 (µM)): 0 | Hoechst 33342 nuclear staining (K562 [3]; K562, 48h, conc 1 (µM)): 2 (score 2 relating to strong activity comprising more than 50% of the cells) | Hoechst 33342 nuclear staining (K562 [3]; K562, 48h, conc 3 (µM)): 2 (score 2 relating to strong activity comprising more than 50% of the cells) | Hoechst 33342 nuclear staining (K562 [3]; K562, 48h, conc 10 (µM)): 2 (score 2 relating to strong activity comprising more than 50% of the cells) | Hoechst 33342 nuclear staining (KB; 24h, conc 0.3 (µM)): 0 | Hoechst 33342 nuclear staining (KB; 24h, conc 1 (µM)): 0 | Hoechst 33342 nuclear staining (KB; 24h, conc 3 (µM)): 0 | Hoechst 33342 nuclear staining (KB; 24h, conc 10 (µM)): 0 | Hoechst 33342 nuclear staining (KB; 48h, conc 0.3 (µM)): 0 | Hoechst 33342 nuclear staining (KB; 48h, conc 1 (µM)): 0 | Hoechst 33342 nuclear staining (KB; 48h, conc 3 (µM)): 0 | Hoechst 33342 nuclear staining (KB; 48h, conc 10 (µM)): 0 | IC50 (A20 [4]): 1 to 10 µM | IC50 (HeLa [5]): 1 to 10 µM | IC50 (K562 [6]): > 10 µM | percentage of positively stained cells (AnnexinV/7-AAD staining) (HeLa [7]): 1 (score 1 relates to more than 10% but less than 50%) | percentage of positively stained cells (AnnexinV/7-AAD staining) (Jurkat [8]): 0 (Score 0 relates to less than 10%) | percentage of positively stained cells (AnnexinV/7-AAD staining) (Ramos): 0 (Score 0 relates to less than 10%) | percentage of positively stained cells (AnnexinV/7-AAD staining) (A20 [9]): 0 (Score 0 relates to less than 10%) | G2M (increase of the cell population arrested in G2M phase) (HeLa [10]): 0 | subG1 (generation of a subG1 peak indicative for DNA fragmentation) (HeLa [10]): 1 | G2M (increase of the cell population arrested in G2M phase) (Jurkat [11]): 0 | subG1 (generation of a subG1 peak indicative for DNA fragmentation) (Jurkat [11]): 1

Source: EP1433789A1, “Pyrrolopyrazines and their use as selective apoptosis inducers” (Aponetics AG, priority 2002, dated 2004)
